Data taken from patent US20240327709A1, “NON-LAMELLAR LIQUID CRYSTAL-FORMING COMPOSITION AND USE THEREOF” (FARNEX INCORPORATED, priority 2021, published 2024).

What was measured:
[1] = Gel formation test with water; format: physicochemical; details: amphiphilic compound mixed with water alone, no phospholipid
Method: (§1) The precursor formulations Nos. 1 to 23 were subjected to gel formation test. A portion (about 100 to 300 mg) of each precursor formulation was added to an excess amount (about 0.5 to 2 mL) of water for injection in a vial, and the whole was mixed at room temperature (25° C.) with a spatula and/or a vortex mixer.
The precursor formulations Nos. 26 to 31 were subjected to gel formation test in a similar manner to that in Example 2.
as §1, with “Nos. 36” for “Nos. 1”, “to 40” for “to 23”

[2] = SAXS liquid crystal structure analysis of gel compositions; format: physicochemical; details: amphiphilic compound mixed with water alone
Excerpt: The gel compositions formed from the precursor formulations Nos. 1 to 23 were each directly embedded in a pinhole slit and subjected to small-angle X-ray scattering diffractometry with a small-angle x-ray scattering (SAXS) apparatus (manufactured by Rigaku Corp., Nano-Viewer) to analyze the non-lamellar liquid crystal structure.
The obtained liquid crystal phases and scattering vector values q1 [nm^−1] of peaks located at the smallest angle are shown in Tables 1 and 2. […] There were some gel compositions having two types of different liquid crystal phases.

gel composition formation [1]	liquid crystal phase [2]	q1 [2]	SMILES
formed a gel composition	HII	1.35 nm⁻¹	CCCCCCCC/C=C\CCCCCCCC(=O)OCCOCCO [diethylene glycol monooleate, Diethylene glycol monooleate]
failed to form a gel composition	–	–	CCCCC/C=C\C/C=C\CCCCCCCC(=O)OC1COC2C(O)COC12 (stereo not drawn) [isosorbide monolinoleate]
failed to form a gel composition	–	–	CCCCC/C=C\C/C=C\CCCCCCCC(=O)OCCC(C)O (stereo not drawn) [1,3-Butylene glycol monolinoleate]
failed to form a gel composition	–	–	CCCCC/C=C\C/C=C\CCCCCCCC(=O)OCCC(C)(C)O [3-methyl-1,3-butanediol monolinoleate]
